Laboratory results as given in patent US12398120B2, “Substituted hydantoinamides as ADAMTS7 antagonists” (BAYER AKTIENGESELLSCHAFT, priority 2019, dated 2025).
pIC50: −log10 of the molar value.

These compounds were tested against ADAMTS4 (Homo sapiens (Human), UniProt O75173) (assay: Selectivity assay for ADAMTS-7 modulators: ADAMTS4 (FRET substrate)). Conditions: ADAMTS4 (R&D 4307-AD) 50 nM, substrate Dabcyl-EEVKAKVQPY-Glu(Edans)-NH2 1 μM, 120 min, 32° C.
ADAMTS4, sequence (O75173 213-685): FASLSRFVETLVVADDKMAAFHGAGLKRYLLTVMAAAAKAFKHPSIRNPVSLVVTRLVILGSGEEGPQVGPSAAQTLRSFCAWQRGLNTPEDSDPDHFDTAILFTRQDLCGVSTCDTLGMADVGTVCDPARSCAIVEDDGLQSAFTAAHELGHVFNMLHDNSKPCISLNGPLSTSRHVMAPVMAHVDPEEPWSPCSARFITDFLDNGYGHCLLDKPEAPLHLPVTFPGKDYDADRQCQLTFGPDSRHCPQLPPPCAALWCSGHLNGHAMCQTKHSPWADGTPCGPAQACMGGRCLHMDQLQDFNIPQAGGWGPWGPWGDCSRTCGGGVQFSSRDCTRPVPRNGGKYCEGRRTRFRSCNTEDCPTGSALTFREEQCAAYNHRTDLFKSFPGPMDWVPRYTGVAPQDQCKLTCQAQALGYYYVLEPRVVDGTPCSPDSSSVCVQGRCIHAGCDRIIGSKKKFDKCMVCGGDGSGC
Format: biochemical
Procedure, shortened: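 Human ADAMTS4 with compound in DMSO, or DMSO control; reaction started by adding FRET substrate in reaction buffer. Fluorescence increase measured at substrate-specific wavelengths. IC50 derived from % inhibition of enzyme activity versus compound concentration.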
Compound `CS(=O)(=O)c1ccc(-c2ccccc2C(=O)NC[C@@]2(C3CC3)NC(=O)NC2=O)cc1` [Example 217, N-{[(4R)-4-Cyclopropyl-2,5-Dioxoimidazolidin-4-Yl]Methyl}-4′-(Methanesulfonyl)[1,1′-Biphenyl]-2-Carboxamide] has a pIC50 of 4.80. With `Cc1ccc(C(=O)NC[C@@]2(C3CC3)NC(=O)NC2=O)c(-c2ccc(C(F)(F)F)cc2)c1` [Example 218, N-{[(4R)-4-Cyclopropyl-2,5-Dioxoimidazolidin-4-Yl]Methyl}-5-Methyl-4′-(Trifluoromethyl)[Biphenyl]-2-Carboxamide] the pIC50 was 5.40. For `Cc1ccc(-c2ccc(F)cc2C(=O)NC[C@@]2(C3CC3)NC(=O)NC2=O)cc1` [Example 219, N-{[(4R)-4-Cyclopropyl-2,5-Dioxoimidazolidin-4-Yl]Methyl}-4-Fluoro-4-Methyl[Biphenyl]-2-Carboxamide], the pIC50 was 5.55. `O=C1NC(=O)[C@](CNC(=O)c2ccccc2-c2ccc(Cl)cc2)(C2CC2)N1` [Example 220, 4′-Chloro-N-{[(4R)-4-Cyclopropyl-2,5-Dioxoimidazolidin-4-Yl]Methyl}[1,1′-Biphenyl]-2-Carboxamide] gave a pIC50 of 5.11. `Cc1ccc(-c2ccccc2C(=O)NC[C@@]2(C3CC3)NC(=O)NC2=O)cc1F` [Example 221, N-{[(4R)-4-Cyclopropyl-2,5-Dioxoimidazolidin-4-Yl]Methyl}-3′-Fluoro-4′-Methyl[1,1′-Biphenyl]-2-Carboxamide] gave a pIC50 of 5.09. With `Cc1ccc(-c2cccc(Cl)c2C(=O)NC[C@@]2(C3CC3)NC(=O)NC2=O)cc1` [Example 222, 3-Chloro-N-{[(4R)-4-Cyclopropyl-2,5-Dioxoimidazolidin-4-Yl]Methyl}-4′-Methyl[1,1′-Biphenyl]-2-Carboxamide] the pIC50 was 5.52. Work on `N#Cc1ccc(-c2ccccc2C(=O)NC[C@@]2(C3CC3)NC(=O)NC2=O)cc1` [Example 223, 4′-Cyano-N-{[(4R)-4-Cyclopropyl-2,5-Dioxoimidazolidin-4-Yl]Methyl}[1,1′-Biphenyl]-2-Carboxamide] yielded a pIC50 of 4.59. `O=C1NC(=O)[C@](CNC(=O)c2ccccc2-c2ccc(C(F)(F)F)nc2)(C2CC2)N1` [Example 224, N-{[(4R)-4-Cyclopropyl-2,5-Dioxoimidazolidin-4-Yl]Methyl}-2-[6-(Trifluoromethyl)Pyridin-3-Yl]Benzamide] showed a pIC50 of 4.72. `Cc1ccc(-c2ccccc2C(=O)NC[C@@]2(C3CC3)NC(=O)NC2=O)cc1Cl` [Example 225, 3′-Chloro-N-{[(4R)-4-Cyclopropyl-2,5-Dioxoimidazolidin-4-Yl]Methyl}-4′-Methyl[1,1′-Biphenyl]-2-Carboxamide] gave a pIC50 of 4.68. `O=C1NC(=O)[C@](CNC(=O)c2ccccc2-c2ccc(C(F)(F)F)c(Cl)c2)(C2CC2)N1` [Example 226, 3′-Chloro-N-{[(4R)-4-Cyclopropyl-2,5-Dioxoimidazolidin-4-Yl]Methyl}-4′-(Trifluoromethyl)[1,1′-Biphenyl]-2-Carboxamide] was tested, and the pIC50 was less than 4.30. `O=C1NC(=O)[C@](CNC(=O)c2ccccc2-c2ccc(Cl)c(Cl)c2)(C2CC2)N1` [Example 227, 3′,4′-Dichloro-N-{[(4R)-4-Cyclopropyl-2,5-Dioxoimidazolidin-4-Yl]Methyl}[1,1′-Biphenyl]-2-Carboxamide] showed a pIC50 of 4.39. For `Cc1ccc(-c2ccccc2C(=O)NC[C@@]2(C3CC3)NC(=O)NC2=O)cn1` [Example 228, N-{[(4R)-4-Cyclopropyl-2,5-Dioxoimidazolidin-4-Yl]Methyl}-2-(6-Methylpyridin-3-Yl)Benzamide], the pIC50 was 4.70. With `Cc1ccc(-c2cccc(F)c2C(=O)NC[C@@]2(C3CC3)NC(=O)NC2=O)cc1` [Example 229, N-{[(4R)-4-Cyclopropyl-2,5-Dioxoimidazolidin-4-Yl]Methyl}-3-Fluoro-4′-Methyl[1,1′-Biphenyl]-2-Carboxamide] the pIC50 was 4.70. Compound `O=C1NC(=O)[C@](CNC(=O)c2c(F)cccc2-c2ccc(C(F)(F)F)cc2)(C2CC2)N1` [Example 230, N-{[(4R)-4-Cyclopropyl-2,5-Dioxoimidazolidin-4-Yl]Methyl}-3-Fluoro-4′-(Trifluoromethyl)[1,1′-Biphenyl]-2-Carboxamide] has a pIC50 of 4.48. Compound `O=C1NC(=O)[C@](CNC(=O)c2c(Cl)cccc2-c2ccc(Cl)cc2)(C2CC2)N1` [Example 231, 3,4′-Dichloro-N-{[(4R)-4-Cyclopropyl-2,5-Dioxoimidazoidin-4-Yl]Methyl}[1,1′-Biphenyl]-2-Carboxamide] has a pIC50 of 5.28. For `O=C1NC(=O)[C@](CNC(=O)c2ccc(Cl)cc2-c2ccc(Cl)cc2)(C2CC2)N1` [Example 232, 4′,5-Dichloro-N-{[(4R)-4-Cyclopropyl-2,5-Dioxoimidazolidin-4-Yl]Methyl}[1,1′-Biphenyl]-2-Carboxamide], the pIC50 was 5.43. In the case of `O=C1NC(=O)[C@](CNC(=O)c2cc(F)ccc2-c2ccc(Cl)cc2)(C2CC2)N1` [Example 233, 4′-Chloro-N-{[(4R)-4-Cyclopropyl-2,5-Dioxoimidazolidin-4-Yl]Methyl}-4-Fluoro[1,1′-Biphenyl]-2-Carboxamide], the pIC50 was 5.19. `O=C1NC(=O)[C@](CNC(=O)c2cc(F)ccc2-c2ccc(Cl)c(Cl)c2)(C2CC2)N1` [Example 234, 3′,4′-Dichloro-N-{[(4R)-4-Cyclopropyl-2,5-Dioxoimidazolidin-4-Yl]Methyl}-4-Fluoro[1,1′-Biphenyl]-2-Carboxamide] gave a pIC50 of 4.80. In the case of `O=C1NC(=O)[C@](CNC(=O)c2cccc(F)c2-c2ccc(C(F)(F)F)cc2)(C2CC2)N1` [Example 235, N-{[(4R)-4-Cyclopropyl-2,5-Dioxoimidazolidin-4-Yl]Methyl}-6-Fluoro-4′-(Trifluoromethyl)[1,1′-Biphenyl]-2-Carboxamide], the pIC50 was 5.11. Compound `Cc1ccc(-c2ccccc2C(=O)NCC2(C3CCC3)NC(=O)NC2=O)cc1` (stereo not drawn) [Example 236, Ent-N-[(4-Cyclobutyl-2,5-Dioxoimidazolidin-4-Yl)Methyl]-4′-Methyl[Biphenyl]-2-Carboxamide] has a pIC50 of 4.82. For `O=C1NC(=O)C(CNC(=O)c2ccccc2-c2ccc(C(F)(F)F)cc2)(C2CCC2)N1` (stereo not drawn) [Example 237, Ent-N-[(4-Cyclobutyl-2,5-Dioxoimidazolidin-4-Yl)Methyl]-4′-(Trifluoromethyl)[Biphenyl]-2-Carboxamide], the pIC50 was less than 4.30. `Cc1ccc(C(=O)NCC2(C3CCC3)NC(=O)NC2=O)c(-c2ccc(C(F)(F)F)cc2)c1` (stereo not drawn) [Example 238, Ent-N-[(4-Cyclobutyl-2,5-Dioxoimidazolidin-4-Yl)Methyl]-5-Methyl-4′-(Trifluoromethyl)[Biphenyl]-2-Carboxamide] gave a pIC50 of 5.70. Work on `O=C1NC(=O)C(CNC(=O)c2ccc(F)cc2-c2ccc(C(F)(F)F)cc2)(C2CCC2)N1` (stereo not drawn) [Example 239, Ent-N-[(4-Cyclobutyl-2,5-Dioxoimidazolidin-4-Yl)Methyl]-5-Fluoro-4′-(Trifluoromethyl)[Biphenyl]-2-Carboxamide] yielded a pIC50 of less than 4.30. With `O=C1NC(=O)C(CNC(=O)c2ccccc2-c2ccc(C(F)(F)F)cc2)(c2ncccc2C(F)(F)F)N1` (stereo not drawn) [Example 244, Ent-N-({2,5-Dioxo-4-[3-(Trifluoromethyl)Pyridin-2-Yl]Imidazolidin-4-Yl}Methyl)-4′-(Trifluoromethyl)[Biphenyl]-2-Carboxamide] the pIC50 was 5.00. `O=C1NC(=O)C(CNC(=O)c2ccccc2-c2ccc(C(F)(F)F)cc2)(C2CC(F)(F)C2)N1` (stereo not drawn) [Example 248, Ent-N-{[4-(3,3-Difluorocyclobutyl)-2,5-Dioxoimidazolidin-4-Yl]Methyl}-4′-(Trifluoromethyl)[Biphenyl]-2-Carboxamide] showed a pIC50 of less than 4.30.
